From patent US20220160686A1, “MACROCYCLIC AZOLOPYRIDINE DERIVATIVES AS EED AND PRC2 MODULATORS” (Fulcrum Therapeutics, Inc., priority 2019, published 2022)
Where two headings read alike, the source gives them in different places.

Test system: human P-glycoprotein HEK cells (HEK-P-gp)
Experiment: H3K27me3 immunocytochemistry assay in P-gp expressing HEK293T cells, with or without elacridar
Format: cell-based
Conditions: Homo sapiens, 4 days compound treatment
Procedure, shortened: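 HEK293T stably expressing human ABCB1 (vinblastine-selected), 1000 cells/well, treated with serially diluted compound for 4 days at 37° C, with or without 250 nM elacridar. Fixed cells stained with anti-H3K27me3 plus Alexa 488 secondary and Hoechst; imaged at 10×, nuclei identified by Hoechst.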

[1] = HEK293, 96 h, without elacridar, read-out: IC50, inhibitory activity on human P-glycoprotein HEK cells (HEK-P-gp)
[2] = HEK293, with 250 nM elacridar, read-out: IC50, inhibitory activity on human P-glycoprotein HEK cells (HEK-P-gp) pretreated with elacridar

SMILES	IC50 [1]	IC50 [2]
Cc1ncccc1-c1cc2c(n3cnnc13)NCc1c(F)cccc1COC2 [Compound 6, 12-fluoro-4-(2-methylpyridin-3-yl)-6,8,13,14-tetrahydro-[1,2,4]triazolo[4′,3′:1,6]pyrido[3,2-c]benzo[g][1,5]oxazonine]	> 0.5 µM	> 0.5 µM
Cc1ncccc1-c1cc2c(n3cnnc13)NCc1c(F)cccc1CCO2 [Compound 5, 12-fluoro-4-(2-methylpyridin-3-yl)-7,8,13,14-tetrahydro-[1,2,4]triazolo[4′,3′:1,6]pyrido[3,2-b]benzo[f][1,4]oxazonine]	> 0.5 µM	> 0.5 µM
CC(=O)N1CCC(c2cc3c(n4cnnc24)NCc2c(F)cccc2CCO3)CC1 [Compound 4, 1-(4-(12-fluoro-7,8,13,14-tetrahydro-[1,2,4]triazolo[4′,3′:1,6]pyrido[3,2-b]benzo[f][1,4]oxazonin-4-yl)piperidin-1-yl)ethan-1-one]	> 0.5 µM	> 0.5 µM
CN(CC(F)(F)F)C(=O)c1cc2c(n3cnnc13)NCc1c(F)ccc3c1C(CO3)CO2 (stereo not shown) [Example 38]	0.05 to 0.1 µM	0.1 to 0.5 µM
Cc1ncc(-c2cc3c(n4cnnc24)NCc2c(F)cccc2CCO3)c(C)n1 [Compound 14, 4-(2,4-dimethylpyrimidin-5-yl)-12-fluoro-7,8,13,14-tetrahydro-[1,2,4]triazolo[4′,3′:1,6]pyrido[3,2-b]benzo[f][1,4]oxazonine]	> 0.5 µM	> 0.5 µM
Fc1ccc2c3c1CNc1c(cc(C4COC4)c4nncn14)OC[C@@H]3CO2 [Compound 12, (S)-12-fluoro-4-(oxetan-3-yl)-7a,8,13,14-tetrahydro-7H-[1,2,4]triazolo[4′,3′:1,6]pyrido[3,2-b]benzofuro[4,3-fg][1,4]oxazonine]	0.05 to 0.1 µM	0.025 to 0.05 µM
Cn1nc(C(F)(F)F)cc1-c1cc2c(n3cnnc13)NCc1c(F)ccc3c1[C@H](CO3)CO2 [Example 115]	0.025 to 0.05 µM	< 0.025 µM
CS(=O)(=O)c1ccc(-c2cc3c(n4cnnc24)NCc2c(F)ccc4c2C(CO4)CO3)cc1 (stereo not shown) [Example 36]	< 0.025 µM	< 0.025 µM
Cn1nc(C(C)(C)C#N)cc1-c1cc2c(n3cnnc13)NCc1c(F)ccc3c1[C@@H](CO3)CO2 [Compound 169, (S)-2-(5-(12-fluoro-7a,8,13,14-tetrahydro-7H-[1,2,4]triazolo[4′,3′:1,6]pyrido[3,2-b]benzofuro[4,3-fg][1,4]oxazonin-4-yl)-1-methyl-1H-pyrazol-3-yl)-2-methylpropanenitrile]	< 0.025 µM	< 0.025 µM
Cc1ncoc1-c1cc2c(n3cnnc13)NCc1c(F)ccc3c1[C@@H](CO3)CO2 [Compound 189, (S)-12-fluoro-4-(4-methyloxazol-5-yl)-7a,8,13,14-tetrahydro-7H-[1,2,4]triazolo[4′,3′:1,6]pyrido[3,2-b]benzofuro[4,3-fg][1,4]oxazonine]	< 0.025 µM	< 0.025 µM
c1cc2c3c(c1)OC[C@H]3COc1ccc3nncn3c1NC2 [Compound 11, (S)-7a,8,13,14-tetrahydro-7H-[1,2,4]triazolo[4′,3′:1,6]pyrido[3,2-b]benzofuro[4,3-fg][1,4]oxazonine]	> 0.5 µM	> 0.5 µM
Fc1cncnc1-c1cc2c(n3cnnc13)NCc1c(F)ccc3c1[C@@H](CO3)CO2 [Compound 164, (S)-12-fluoro-4-(5-fluoropyrimidin-4-yl)-7a,8,13,14-tetrahydro-7H-[1,2,4]triazolo[4′,3′:1,6]pyrido[3,2-b]benzofuro[4,3-fg][1,4]oxazonine]	< 0.025 µM	< 0.025 µM
COc1ncc(-c2cc3c(n4cnnc24)NCc2c(F)ccc4c2[C@H](CO4)CO3)cn1 [Example 30]	0.05 to 0.1 µM	0.025 to 0.05 µM
Cc1cn(-c2cc3c(n4cnnc24)NCc2c(F)ccc4c2[C@@H](CO4)CO3)cn1 [Compound 15, (S)-12-fluoro-4-(4-methyl-1H-imidazol-1-yl)-7a,8,13,14-tetrahydro-7H-[1,2,4]triazolo[4′,3′:1,6]pyrido[3,2-b]benzofuro[4,3-fg][1,4]oxazonine]	0.025 to 0.05 µM	< 0.025 µM
Cc1ncc(-c2cc3c(n4cnnc24)NCc2c(F)ccc4c2[C@@H](CO4)CO3)c(C)n1 [Compound 13, (S)-4-(2,4-dimethylpyrimidin-5-yl)-12-fluoro-7a,8,13,14-tetrahydro-7H-[1,2,4]triazolo[4′,3′:1,6]pyrido[3,2-b]benzofuro[4,3-fg][1,4]oxazonine]	0.025 to 0.05 µM	< 0.025 µM
CC(=O)N1CCC(c2cc3c(n4cnnc24)NCc2cccc4c2[C@@H](CO4)CO3)CC1 [Compound 3, (S)-1-(4-(7a,8,13,14-tetrahydro-7H-[1,2,4]triazolo[4′,3′:1,6]pyrido[3,2-b]benzofuro[4,3-fg][1,4]oxazonin-4-yl)piperidin-1-yl)ethan-1-one]	> 0.5 µM	0.1 to 0.5 µM
Fc1ccc2c3c1CNc1c(cc(Br)c4nncn14)OC[C@@H]3CO2 [Compound 165, (S)-4-bromo-12-fluoro-7a,8,13,14-tetrahydro-7H-[1,2,4]triazolo[4′,3′:1,6]pyrido[3,2-b]benzofuro[4,3-fg][1,4]oxazonine]	> 0.5 µM	> 0.5 µM
Cn1nccc1-c1cc2c(n3cc(C#N)nc13)NCc1c(F)ccc3c1[C@@H](CO3)CO2 [Compound 172, (S)-5-fluoro-12-(1-methyl-1H-pyrazol-5-yl)-6,7,15,15a-tetrahydro-1H-benzofuro[4,3-fg]imidazo[r,2′:1,6]pyrido[3,2-b][1,4]oxazonine-10-carbonitrile]	0.025 to 0.05 µM	0.025 to 0.05 µM
Cn1nccc1-c1cc2c(n3cc(C(N)=O)nc13)NCc1c(F)ccc3c1[C@@H](CO3)CO2 [Compound 175, (S)-5-fluoro-12-(1-methyl-1H-pyrazol-5-yl)-6,7,15,15a-tetrahydro-1H-benzofuro[4,3-fg]imidazo[r,2′:1,6]pyrido[3,2-b][1,4]oxazonine-10-carboxamide]	> 0.5 µM	0.1 to 0.5 µM
Cc1cc(C#N)ccc1-c1cc2c(n3cnnc13)NCc1c(F)ccc3c1[C@H](CO3)CO2 [Example 49]	0.025 to 0.05 µM	< 0.025 µM
COC(=O)N1CCC(c2cc3c(n4cnnc24)NCc2c(F)ccc4c2C(CO4)CO3)CC1 [Compound 16, methyl (S)-4-(12-fluoro-7a,8,13,14-tetrahydro-7H-[1,2,4]triazolo[4′,3′:1,6]pyrido[3,2-b]benzofuro[4,3-fg][1,4]oxazonin-4-yl)piperidine-1-carboxylate]	0.1 to 0.5 µM	0.05 to 0.1 µM
Cc1ncccc1-c1cc2c(n3cc(C(N)=O)nc13)NCc1c(F)ccc3c1[C@@H](CO3)CO2 [Compound 176, (S)-5-fluoro-12-(2-methylpyridin-3-yl)-6,7,15,15a-tetrahydro-1H-benzofuro[4,3-fg]imidazo[r,2′:1,6]pyrido[3,2-b][1,4]oxazonine-10-carboxamide]	> 0.5 µM	> 0.5 µM
Cc1ncccc1-c1cc2c(n3cnnc13)NCc1cccc3c1[C@H](CO3)CO2 [Compound 1, (15R)-10-(2-methyl-3-pyridyl)-13,17-dioxa-3,5,7,8-tetrazapentacyclo[13.6.1.04,12.05,9.018,22] docosa-1(22),4(12),6,8,10,18,20-heptaene]	0.1 to 0.5 µM	< 0.025 µM
Cc1ncccc1-c1cc2c(n3cc(C#N)nc13)NCc1c(F)ccc3c1[C@@H](CO3)CO2 [Compound 186, (S)-5-fluoro-12-(2-methylpyridin-3-yl)-6,7,15,15a-tetrahydro-1H-benzofuro[4,3-fg]imidazo[1′,2′:1,6]pyrido[3,2-b][1,4]oxazonine-10-carbonitrile]	0.05 to 0.1 µM	0.025 to 0.05 µM
Cn1nccc1-c1cc2c(n3cnnc13)NCc1c(F)ccc3c1C(CO3)CO2 (stereo not shown) [Example 17]	< 0.025 µM	< 0.025 µM
Cn1cc(Cc2cc3c(n4cnnc24)NCc2cccc4c2[C@@H](CO4)CO3)cn1 [Compound 7, (S)-4-((1-methyl-1H-pyrazol-4-yl)methyl)-7a,8,13,14-tetrahydro-7H-[1,2,4]triazolo[4′,3′:1,6]pyrido[3,2-b]benzofuro[4,3-fg][1,4]oxazonine]	> 0.5 µM	0.1 to 0.5 µM
Cn1nc(OC(F)F)cc1-c1cc2c(n3cnnc13)NCc1c(F)ccc3c1[C@@H](CO3)CO2 [Compound 167, (S)-4-(3-(difluoromethoxy)-1-methyl-1H-pyrazol-5-yl)-12-fluoro-7a,8,13,14-tetrahydro-7H-[1,2,4]triazolo[4′,3′:1,6]pyrido[3,2-b]benzofuro[4,3-fg][1,4]oxazonine]	< 0.025 µM	< 0.025 µM
Cn1cc(Cc2cc3c(n4cnnc24)NCc2c(F)ccc4c2[C@@H](CO4)CO3)cn1 [Compound 10, (S)-12-fluoro-4-((1-methyl-1H-pyrazol-4-yl)methyl)-7a,8,13,14-tetrahydro-7H-[1,2,4]triazolo[4′,3′:1,6]pyrido[3,2-b]benzofuro[4,3-fg][1,4]oxazonine]	> 0.5 µM	0.1 to 0.5 µM
Cn1nc(F)cc1-c1cc2c(n3cnnc13)NCc1c(F)ccc3c1[C@@H](CO3)CO2 [Compound 168, (S)-12-fluoro-4-(3-fluoro-1-methyl-1H-pyrazol-5-yl)-7a,8,13,14-tetrahydro-7H-[1,2,4]triazolo[4′,3′:1,6]pyrido[3,2-b]benzofuro[4,3-fg][1,4]oxazonine]	< 0.025 µM	< 0.025 µM
